Counter-ions that a name gives are not always drawn.
Legend:
[1] = Solubility of salts of compound 1; format: physicochemical; settings: for Solubility in Water: overnight
HUVEC tube formation = experiment: Matrigel tube formation assay; format: cell-based, human
Description: HUVEC (Clonetics) were plated in 96 well plates in EGM-2 media (Clonetics) at 2.5 to 3×10^4 cells per well. Cells of less than 6 passages were used in all studies. Wells were precoated with 50 μL growth factor containing Matrigel (Becton Dickinson). HUVEC were allowed to form tubes by incubation at 37° C. in 5% CO2 for 22 hrs. In test wells compound was added in the desired concentration. Photographic images of the wells ×4 magnification were used to determine size of the tubes, length of tubes and number of junctions using image analysis software.

SSTR-2 = molecular target: T1, SSTR-2 (Homo sapiens, UniProt P30874); experiment: Radioligand binding screen against somatostatin subtype SSTR-2; settings: Table 8; read-out: Ki SSTR2
T1 construct: expressed in transfected cells
T1 sequence (P30874 whole entry): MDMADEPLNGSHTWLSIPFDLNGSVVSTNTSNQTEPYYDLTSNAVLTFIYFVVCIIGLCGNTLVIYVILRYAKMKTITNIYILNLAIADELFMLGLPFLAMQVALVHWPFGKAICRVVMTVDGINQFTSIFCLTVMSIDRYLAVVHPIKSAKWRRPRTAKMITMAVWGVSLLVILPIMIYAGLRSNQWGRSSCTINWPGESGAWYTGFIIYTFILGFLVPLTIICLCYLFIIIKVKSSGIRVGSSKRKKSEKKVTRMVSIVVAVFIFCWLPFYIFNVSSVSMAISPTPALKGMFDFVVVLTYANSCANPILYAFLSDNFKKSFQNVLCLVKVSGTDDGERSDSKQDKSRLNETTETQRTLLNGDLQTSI
Description: (§1) Receptor membrane preparations containing the desired cloned receptor (for example cloned human somatostatin receptor subtype 5, SSTR5) and radio-labeled ligand (for example 3-[^125I]iodotyrosyl^11 Somatostatin-14)) were diluted at the concentration required for testing and according to the specific parameters associated with the selected receptor-ligand combination, including receptor Bmax, ligand Kd and any other parameters necessary to optimize the experimental conditions. When tested for competition activity to the reference ligand, “compound 1” was mixed with membrane suspension and the radiolabeled reference ligand (with or without an excess of cold ligand to the receptor for determination of non-specific binding) and incubated at the temperature required by internal standard operating procedures. Following incubation, the binding reaction was stopped by the addition of ice-cold washing buffer and filtered on appropriate filters, which are then counted. Data analysis and curve-fitting was performed with XLfit (IDBS).
(§2) 10 mM solutions of test compounds in 100% DMSO were prepared. ˜160 μl was used for each dilution (20 μl/well in triplicate).
(§3) A 1.25 mM assay stock was prepared by making a 1:8 dilution of the 10 mM solution. (To 30 μL of the 10 mM solution was added 210 μL milli-Q H2O. A 1:5 dilution series in milli-Q H2O was then prepared.
(§4) In primary screening experiments compounds were tested in duplicate for a particular concentration.

[2] = tested on: Human Umbilical Vein Endothelial Cells (HUVEC); experiment: Endothelial cell proliferation assay (MTS); format: cell-based; settings: 48 hrs
Description: Human Umbilical Vein Endothelial Cells (HUVEC from Clonetics) were plated in 96 well plates at 1000 cell per well in EGM-2 medium (Clonetics). Cells were grown overnight at 37° C. in 5% CO2. Fresh EGM-2 medium containing compound at the desired concentration was added to the wells and the cells allowed to grow for a further 48 hrs. A MTS (Promega) colorimetric assay was performed after 48 hrs to determine cell growth according to the manufacturers instructions. Results are presented in terms of percentage growth.

SSTR-4 = molecular target: T2, SSTR-4 (Homo sapiens, UniProt P31391); experiment: Radioligand binding screen against somatostatin subtype SSTR-4 (SST4 assay); settings: Table 8; read-out: Ki SSTR4
T2 construct: expressed in transfected cells
T2 sequence (P31391 whole entry): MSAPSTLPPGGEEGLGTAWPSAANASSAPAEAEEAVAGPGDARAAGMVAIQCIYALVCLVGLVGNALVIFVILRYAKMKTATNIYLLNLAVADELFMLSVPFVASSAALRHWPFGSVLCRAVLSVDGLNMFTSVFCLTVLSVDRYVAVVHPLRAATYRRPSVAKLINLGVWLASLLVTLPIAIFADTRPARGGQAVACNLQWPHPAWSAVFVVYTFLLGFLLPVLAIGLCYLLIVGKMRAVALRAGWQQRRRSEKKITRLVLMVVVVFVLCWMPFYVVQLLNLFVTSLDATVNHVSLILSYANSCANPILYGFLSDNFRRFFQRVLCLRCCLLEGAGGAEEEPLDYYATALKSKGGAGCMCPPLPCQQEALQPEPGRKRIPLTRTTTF
Description: as §1, §2, §3
Assays were performed in triplicate at each concentration within the 1:5 dilution series: 250 μM, 50 μM, 10 μM, […], 0.4 μM, 0.08 μM, 0.016 μM, 0.0032 μM, etc. (for SST4 assay) and 125 μM, 10 μM, 2 μM, 1 μM, 0.5 μM, etc (for SST5 assay).
as §4

SSTR-1 = molecular target: T3, SSTR-1 (Homo sapiens, UniProt P30872); experiment: Radioligand binding screen against somatostatin subtype SSTR-1; settings: Table 8; read-out: Ki SSTR1
T3 construct: expressed in transfected cells
T3 sequence (P30872 whole entry, species assumed): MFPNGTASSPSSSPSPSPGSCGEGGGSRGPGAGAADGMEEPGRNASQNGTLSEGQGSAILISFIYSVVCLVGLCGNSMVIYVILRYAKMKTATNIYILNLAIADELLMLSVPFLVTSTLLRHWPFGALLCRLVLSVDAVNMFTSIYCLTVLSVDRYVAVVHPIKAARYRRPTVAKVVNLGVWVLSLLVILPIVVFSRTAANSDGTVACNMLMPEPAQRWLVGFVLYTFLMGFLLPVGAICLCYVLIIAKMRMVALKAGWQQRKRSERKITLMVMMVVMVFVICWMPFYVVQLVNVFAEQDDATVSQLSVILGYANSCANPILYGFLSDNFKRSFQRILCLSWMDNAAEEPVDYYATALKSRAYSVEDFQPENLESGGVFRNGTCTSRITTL
Description: as §1, §2, §3, §4

SSTR-3 = molecular target: T4, SSTR-3 (Homo sapiens, UniProt P32745); experiment: Radioligand binding screen against somatostatin subtype SSTR-3; settings: Table 8; for IC50: shown where Ki could not be determined (NoModel), read-out: IC50 SSTR3 (in parentheses); for Ki: read-out: Ki SSTR3
T4 construct: expressed in transfected cells
T4 sequence (P32745 whole entry): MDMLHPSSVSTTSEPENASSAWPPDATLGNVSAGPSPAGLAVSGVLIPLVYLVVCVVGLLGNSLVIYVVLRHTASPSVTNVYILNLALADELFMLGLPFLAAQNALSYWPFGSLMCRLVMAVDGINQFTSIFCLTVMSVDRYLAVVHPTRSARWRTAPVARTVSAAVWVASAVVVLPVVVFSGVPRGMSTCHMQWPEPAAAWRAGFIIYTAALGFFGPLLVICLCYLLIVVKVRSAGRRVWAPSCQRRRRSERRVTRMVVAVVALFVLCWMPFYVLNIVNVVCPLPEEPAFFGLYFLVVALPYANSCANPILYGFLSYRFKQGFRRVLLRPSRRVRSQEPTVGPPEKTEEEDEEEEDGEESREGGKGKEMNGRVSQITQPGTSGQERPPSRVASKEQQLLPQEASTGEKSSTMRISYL
Description: as §1, §2, §3, §4

[3] = molecular target: T5, Human SST5 somatostatin receptor (SSTR5) (Homo sapiens, UniProt P35346); experiment: Filter plate assay for SST5 receptor, displacement of [125I]SST-14; format: binding; settings: Table 8; for IC50: shown where Ki could not be determined (NoModel), read-out: IC50 SSTR5 (in parentheses)
T5 construct: expressed in transfected cells; host or cells: HEK-293 EBNA
T5 sequence (P35346 whole entry): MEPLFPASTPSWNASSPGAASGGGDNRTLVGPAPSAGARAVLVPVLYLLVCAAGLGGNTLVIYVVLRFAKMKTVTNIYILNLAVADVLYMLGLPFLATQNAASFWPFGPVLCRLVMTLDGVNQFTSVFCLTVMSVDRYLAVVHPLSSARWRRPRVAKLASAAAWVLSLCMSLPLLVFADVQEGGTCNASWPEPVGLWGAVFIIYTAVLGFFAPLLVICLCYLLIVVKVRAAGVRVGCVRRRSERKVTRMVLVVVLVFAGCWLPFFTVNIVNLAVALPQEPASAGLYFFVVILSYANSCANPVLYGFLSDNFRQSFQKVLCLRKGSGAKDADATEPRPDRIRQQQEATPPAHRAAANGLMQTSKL
Summary of the method: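 HEK-293 EBNA membranes expressing human SST5 (5.5 μg) incubated 60 min at 25 °C with 4 nM [125I]SST-14 and compound in pH 7.5 Tris/EGTA/MgCl2/sucrose buffer. Bound radioactivity collected on PEI-coated glass fiber filters and counted; triplicate 1:5 dilution series from 125 μM, non-specific binding with excess cold ligand.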

[4] = 22 hrs, 50% inhibition of tube formation

Row | SMILES | Ki (SSTR-2) [nM] | Percent cell growth at 125 µM [2] [%] | Percent cell growth at 250 µM [2] [%] | Ki (SSTR-4) [µM] | Ki (SSTR-1) [µM] | Ki [3] [nM] | also measured
1 | COC[C@H]1O[C@H](OCCc2ccccc2)[C@H](NC(=O)CCCN)[C@@H](OCc2ccc3ccccc3c2)[C@@H]1O [Succinate] | – | – | – | – | – | – | Solubility in 5% Glucose ([1]; 5% Glucose, Day 3): 4.98 mg/mL; Solubility in Water [1]: 8.52 mg/mL
2 | COCC1OC(OCc2ccc3ccccc3c2)C(NC(=O)CCN)C(OCc2ccc3ccccc3c2)C1O (stereo not drawn) [16 alpha] | – | – | – | – | – | – | EC50 (HUVEC tube formation; [4]): 55 µM
3 | COCC1OC(OCc2ccc3ccccc3c2)C(NC(=O)CCN)C(OCc2ccc(Cl)cc2)C1O (stereo not drawn) [7 beta] | – | – | – | – | – | – | EC50 (HUVEC tube formation; [4]): 95 µM
4 | COC[C@H]1O[C@H](OCCc2ccccc2)[C@H](NC(=O)CCCN)[C@@H](OCc2ccc3ccccc3c2)[C@@H]1O [Citrate] | – | – | – | – | – | – | Solubility in Water [1]: 4.54 mg/mL
5 | COCC1OC(OCc2ccc(Cl)cc2)C(NC(=O)CCN)C(OCc2ccc3ccccc3c2)C1O (stereo not drawn) [3 alpha] | – | – | – | – | – | – | EC50 (HUVEC tube formation; [4]): 45 µM
6 | COC[C@H]1OC(OCc2ccc3ccccc3c2)[C@H](NC(=O)CCCN)[C@@H](OCc2ccc3ccccc3c2)[C@@H]1O (some centres unmarked) [Compound 11] | 4850 | 29 | -53 | 3.98 | 9.22 | – | IC50 (SSTR-3): 2 nM; IC50 [3]: 3 nM
7 | COC[C@H]1O[C@H](OCCc2ccccc2)[C@H](NC(=O)CCCN)[C@@H](OCc2ccc3ccccc3c2)[C@@H]1O [TFA] | – | – | – | – | – | – | Solubility in 5% Glucose ([1]; 5% Glucose, Day 3): 5.27 mg/mL; Solubility in Water [1]: 3.64 mg/mL
8 | COC[C@H]1O[C@H](OCCc2ccccc2)[C@H](NC(=O)CCCN)[C@@H](OCc2ccc3ccccc3c2)[C@@H]1O [Acetate] | – | – | – | – | – | – | Solubility in Water [1]: 6.96 mg/mL
9 | COC[C@H]1O[C@@H](OCc2ccc3ccccc3c2)[C@H](NC(=O)CCCN)[C@@H](OCc2ccc(Cl)cc2)[C@@H]1O [Compound 12] | 5060 | -95 | -71 | > 10 | > 10 | 46 | IC50 (SSTR-3): 429 nM
10 | CS[C@@H]1O[C@H](COCc2ccc3ccccc3c2)[C@@H](O)[C@@H](OCc2ccc3ccccc3c2)[C@H]1NC(=O)CCN [Compound 10] | 726 | -85 | -63 | – | > 10 | 220 | EC50 (HUVEC tube formation; Homo sapiens, 22 h): 125 µM; IC50 (SSTR-3): 228 nM
11 | COC[C@H]1O[C@H](OCc2ccc3ccccc3c2)[C@H](NC(=O)CCN)[C@H](OCc2ccc3ccccc3c2)[C@@H]1O [Compound 15] | 1040 | -78 | -67 | 2.26 | 1.96 | 73 | Ki (SSTR-3): 792 nM
12 | COC[C@H]1O[C@@H](OCc2ccc3ccccc3c2)[C@H](NC(=O)CCN=C(N)N)[C@H](OCc2ccc3ccccc3c2)[C@@H]1O [Compound 8] | 2010 | 66 | -18 | 2.77 | 3.09 | 598 | Ki (SSTR-3): 599 nM
13 | COC[C@H]1OC(OCc2ccc(Cl)cc2)[C@H](NC(=O)CCN)[C@H](OCc2ccc3ccccc3c2)[C@@H]1O (some centres unmarked) [Compound 3] | 1230 | -75 | -39 | 4.58 | 3.73 | – | IC50 (SSTR-3): 127 nM; IC50 [3]: 147 nM
14 | COCC1OC(OCc2ccc(Cl)cc2)C(NC(=O)CCN)C(OCc2ccc3ccccc3c2)C1O (stereo not drawn) [3 beta] | – | – | – | – | – | – | EC50 (HUVEC tube formation; [4]): 90 µM
15 | COC[C@H]1OC(OCc2ccc3ccccc3c2)[C@H](NC(=O)CCN)[C@H](OCc2ccc(Cl)cc2)[C@@H]1O (some centres unmarked) [Compound 7] | 498 | -81 | -63 | 9.13 | 6.09 | 22 | Ki (SSTR-3): 131 nM
16 | CO[C@H]1[C@H](O)[C@@H](COCc2ccc3ccccc3c2)OC(OCc2ccc(Cl)cc2)[C@@H]1NC(=O)C1CCCN(C(=N)N)C1 (some centres unmarked) [Compound 14] | 1210 | -95 | -90 | > 10 | > 10 | 549 | Ki (SSTR-3): 340 nM
17 | COC1C(O)C(COCc2ccc3ccccc3c2)OC(OCc2ccc(Cl)cc2)C1NC(=O)C1CCCN(C(=N)N)C1 (mixture of isomers) [14 mixture] | – | – | – | – | – | – | EC50 (HUVEC tube formation; [4]): 155 µM
18 | COC[C@H]1OC(OCCc2ccccc2)[C@H](NC(=O)CCN)[C@H](OCc2ccc3ccccc3c2)[C@@H]1O (some centres unmarked) [Compound 5] | 1570 | -89 | -57 | 8.54 | 2.55 | 153 | Ki (SSTR-3): 285 nM
19 | COC[C@H]1O[C@H](OCc2ccc3ccccc3c2)[C@H](NC(=O)CCCN)[C@@H](OCc2ccc(Cl)cc2)[C@@H]1O [Compound 13] | > 10000 | 58 | -80 | > 10 | > 10 | 62 | IC50 (SSTR-3): 476 nM
20 | COCC1OC(OCc2ccc3ccccc3c2)C(NC(=O)CCN)C(OCc2ccc(Cl)cc2)C1O (stereo not drawn) [7 alpha] | – | – | – | – | – | – | EC50 (HUVEC tube formation; [4]): 50 µM
21 | COC[C@H]1O[C@H](OCCc2ccccc2)[C@H](NC(=O)CCCN)[C@@H](OCc2ccc3ccccc3c2)[C@@H]1O [Hydrochloride] | – | – | – | – | – | – | solubility at 3 day ([1]; 5% glucose, saline or isotonic, 5% Glucose, Day 3): 6300 µg/mL; Solubility in Water [1]: 7.87 mg/mL
22 | COC[C@H]1OC(OCc2ccc(Cl)cc2)[C@H](NC(=O)CCCN=C(N)N)[C@H](OCc2ccc3ccccc3c2)[C@@H]1O (some centres unmarked) [Compound 4] | 842 | -98 | -90 | 1.42 | 1.59 | 530 | Ki (SSTR-3): 188 nM
23 | COC[C@H]1O[C@H](OCCc2ccccc2)[C@H](NC(=O)CCCN)[C@@H](OCc2ccc3ccccc3c2)[C@@H]1O [Methanesulphonate] | – | – | – | – | – | – | Solubility in Water [1]: 5.17 mg/mL

From patent publication US20080280837A1, “Biologically Active Compounds with Anti-Angiogenic Properties” (priority 2004, published 2008)
